In BindingDB's records for doi:10.1016/s0960-894x(98)00318-7 (National Taiwan University, 1999) one finds Ki data, which are given here for 3 compounds.

pKi: −log10 of the molar value. Where only a bound is given, the exact number is not on record here.

A short description of the experiment: Binding affinity against Opioid receptor delta 1 was determined in brain membrane preparations from male Hartley guinea-pigs.
For `CC1Oc2c(O)cccc2C12CCN(C)CC2` (stereo not drawn) [1',2-dimethylspiro[2,3-dihydrobenzo[b]furan-3,4'-(hexahydropyridine)]-7-ol], the pKi was 5.62.

In turn, `CN1CCC2(CC1)COc1c(O)cccc12` [1'-methylspiro[2,3-dihydrobenzo[b]furan-3,4'-(hexahydropyridine)]-7-ol] showed a pKi of less than 4.00.

Regarding `CCC1Oc2c(O)cccc2C12CCN(C)CC2` (stereo not drawn) [2-ethyl-1'-methylspiro[2,3-dihydrobenzo[b]furan-3,4'-(hexahydropyridine)]-7-ol], the negative logarithm of the Ki (pKi) was 6.07.

A word on the pKi: it is the negative decadic logarithm of the Ki, by convention in mol/L. A higher pKi goes with a small Ki.
